Key:
[1] = target: T1, Serine/threonine-protein kinase PLK1 (Homo sapiens, UniProt P53350); assay: Inhibition of human PLK1 kinase domain at 10 uM using 5-TAMRA-RGSFNDTLDFD-NH2 substrate and ATP incubated for 90 mins by fluorescent polarization assay
[2] = target: CDK9/cyclin T1 (Homo sapiens, UniProt P50750); assay: Inhibition of N-terminal GST-HIS6 fusion protein tagged human full length CDK9 (M1 to F372 residues)/N-terminal GST-HIS6 fusion protein tagged human Cyclin-T1 (M1 to K726 residues) expressed in Sf9 cells at 10 uM using TAMRA-Rbtide substrate and ATP incubated for 1 hr by fluorescent polarization assay
Chain of CDK9/cyclin T1 (O60563 whole entry, the tested form may be a part): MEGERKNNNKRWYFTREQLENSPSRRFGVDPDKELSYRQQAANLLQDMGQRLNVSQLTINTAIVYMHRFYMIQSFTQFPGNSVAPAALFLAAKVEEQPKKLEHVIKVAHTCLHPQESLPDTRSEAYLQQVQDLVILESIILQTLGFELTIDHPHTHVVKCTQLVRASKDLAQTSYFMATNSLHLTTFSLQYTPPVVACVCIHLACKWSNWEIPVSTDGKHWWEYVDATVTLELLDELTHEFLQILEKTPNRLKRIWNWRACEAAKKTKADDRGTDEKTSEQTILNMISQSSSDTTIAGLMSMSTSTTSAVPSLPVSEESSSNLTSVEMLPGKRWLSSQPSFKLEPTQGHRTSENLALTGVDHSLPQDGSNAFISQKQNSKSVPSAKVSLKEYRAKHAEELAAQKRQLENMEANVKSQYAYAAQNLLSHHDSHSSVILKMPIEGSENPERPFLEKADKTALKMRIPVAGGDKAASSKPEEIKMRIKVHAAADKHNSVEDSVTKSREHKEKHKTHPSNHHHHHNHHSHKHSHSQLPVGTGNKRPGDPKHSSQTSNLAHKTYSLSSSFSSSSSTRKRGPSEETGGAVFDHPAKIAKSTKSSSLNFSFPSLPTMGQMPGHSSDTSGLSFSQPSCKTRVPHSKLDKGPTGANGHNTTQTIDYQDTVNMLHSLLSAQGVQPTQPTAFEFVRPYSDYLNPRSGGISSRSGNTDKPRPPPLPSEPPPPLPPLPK
Chain of CDK9/cyclin T1 (P50750 whole entry, the tested form may be a part): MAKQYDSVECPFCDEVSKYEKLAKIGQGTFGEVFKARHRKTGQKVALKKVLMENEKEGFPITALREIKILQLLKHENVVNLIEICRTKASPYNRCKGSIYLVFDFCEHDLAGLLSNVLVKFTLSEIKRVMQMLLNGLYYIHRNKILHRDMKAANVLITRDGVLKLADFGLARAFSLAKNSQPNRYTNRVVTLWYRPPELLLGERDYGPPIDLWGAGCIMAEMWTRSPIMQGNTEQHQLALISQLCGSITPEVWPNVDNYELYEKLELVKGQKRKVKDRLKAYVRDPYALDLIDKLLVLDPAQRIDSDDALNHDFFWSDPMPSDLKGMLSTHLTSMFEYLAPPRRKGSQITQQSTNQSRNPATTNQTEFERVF

[3] = tested on: RPMI-8226; assay: Antiproliferative activity against human RPMI8226 cells assessed as inhibition of cell proliferation incubated for 72 hrs by Cell-titer-Glo luminescent cell viability assay; type: functional, cell-based; conditions: RPMI-8226, 72 h
[4] = target: T1, Serine/threonine-protein kinase PLK1; assay: Inhibition of human PLK1 kinase domain using 5-TAMRA-RGSFNDTLDFD-NH2 substrate and ATP incubated for 90 mins by fluorescent polarization assay
[5] = target: CDK2/Cyclin A2 (Homo sapiens) (UniProt P24941+P20248); assay: Inhibition of human full length CDK2 (M1 to L298 residues)/human full length Cyclin-A2 (M1 to L432 residues) expressed in Sf9 cells at 1 uM using TAMRA-histone H1-derived peptide substrate and ATP incubated for 1 hr by fluorescent polarization assay
[6] = target: CDK7/Cyclin H/MNAT1 (Homo sapiens) (UniProt P51946+P50613+P51948); assay: Inhibition of N-terminal GST-HIS6 fusion protein tagged human CDK7 (M1 to F346 residues)/N-terminal HIS6-tagged human Cyclin-H (M1 to L323 residues)/N-terminal HIS6-tagged human MAT1 (M1 to S306 residues) expressed in Sf9 cells at 1 uM using RB-CTF substrate and ATP incubated for 1 hr by fluorescent polarization assay

T1 sequence (P53350 whole entry, the tested form may be a part): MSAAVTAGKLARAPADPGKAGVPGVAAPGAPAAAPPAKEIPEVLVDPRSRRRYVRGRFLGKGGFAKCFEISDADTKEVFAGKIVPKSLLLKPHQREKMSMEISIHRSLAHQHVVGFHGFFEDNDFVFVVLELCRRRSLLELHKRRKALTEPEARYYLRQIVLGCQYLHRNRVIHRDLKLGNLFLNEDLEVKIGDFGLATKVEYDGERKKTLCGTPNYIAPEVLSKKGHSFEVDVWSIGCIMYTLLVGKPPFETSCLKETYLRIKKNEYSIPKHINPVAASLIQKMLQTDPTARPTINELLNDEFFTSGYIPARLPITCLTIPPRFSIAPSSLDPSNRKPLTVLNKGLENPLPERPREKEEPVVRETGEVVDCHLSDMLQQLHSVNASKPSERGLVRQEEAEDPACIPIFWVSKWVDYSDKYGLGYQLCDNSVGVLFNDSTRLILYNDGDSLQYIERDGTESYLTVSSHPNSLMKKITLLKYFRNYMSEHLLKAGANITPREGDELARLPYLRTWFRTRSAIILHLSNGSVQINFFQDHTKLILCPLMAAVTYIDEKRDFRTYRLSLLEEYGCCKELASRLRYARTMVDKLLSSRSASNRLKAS

SMILES | IC50 [2] [nM] | other results
COc1cc(F)c(F)cc1-c1ccnc(Nc2ccc(S(=O)(=O)Nc3nnc(C)s3)cc2)n1 | 10 | 
Cc1noc(NS(=O)(=O)c2ccc(Nc3nccc(-c4ccc(F)cc4OC(C)C)n3)cc2)c1C | 49 | inhibition [1]: 13%
COc1cc(F)ccc1-c1ccnc(Nc2ccc(S(=O)(=O)Nc3onc(C)c3C)cc2)n1 | 2 | IC50 [4]: > 12500 nM; inhibition [5]: 43%; inhibition [1]: 35%; inhibition [6]: 3%
COc1ccc(F)cc1-c1ccnc(Nc2ccc(S(=O)(=O)Nc3nnc(C)s3)cc2)n1 | 9 | 
COc1ccc(F)c(F)c1-c1ccnc(Nc2ccc(S(=O)(=O)Nc3nnc(C)s3)cc2)n1 | 0.4 | IC50 [4]: > 12500 nM; inhibition [5]: 50%; IC50 [3]: 11700 nM; inhibition [6]: 7%
COc1cc(F)c(-c2ccnc(Nc3ccc(S(=O)(=O)Nc4onc(C)c4C)cc3)n2)c(F)c1 | 21 | 
COc1cc(F)ccc1-c1ccnc(Nc2ccc(S(=O)(=O)Nc3noc(C)c3C)cc2)n1 | 3 | IC50 [4]: > 12500 nM; inhibition [5]: 0%; inhibition [6]: 0%
CCOc1cccc(F)c1-c1ccnc(Nc2ccc(S(=O)(=O)Nc3onc(C)c3C)cc2)n1 | 2 | IC50 [4]: > 12500 nM; inhibition [5]: 14%; inhibition [6]: 0%
COc1ccccc1-c1ccnc(Nc2ccc(S(=O)(=O)Nc3nccs3)cc2)n1 | 33 | IC50 [3]: 24700 nM
COc1ccc(F)cc1-c1ccnc(Nc2ccc(S(=O)(=O)Nc3onc(C)c3C)cc2)n1 | 9 | 
COc1ccccc1-c1ccnc(Nc2ccc(S(=O)(=O)Nc3nnc(C)s3)cc2)n1 | 12 | 
Cc1cc(F)ccc1-c1ccnc(Nc2ccc(S(=O)(=O)Nc3onc(C)c3C)cc2)n1 | 6 | 
COc1cc(F)c(Nc2nccc(-c3ccc(F)cc3OC)n2)cc1C(N)=O | > 12500 | 
COc1cccc(F)c1-c1ccnc(Nc2ccc(S(=O)(=O)Nc3onc(C)c3C)cc2)n1 | 1 | IC50 [4]: 12400 nM; inhibition [5]: 44%; IC50 [3]: 26600 nM; inhibition [6]: 1%
COc1cc(F)ccc1-c1ccnc(Nc2ccc(S(=O)(=O)Nc3nccs3)cc2)n1 | 122 | 
COc1cccc(F)c1-c1ccnc(Nc2cccc(Cn3cnc4ccccc43)c2)n1 | 2 | IC50 [4]: > 12500 nM; inhibition [5]: 44%; IC50 [3]: 1780 nM; inhibition [6]: 0%
COc1ccccc1-c1ccnc(Nc2ccc(S(=O)(=O)Nc3onc(C)c3C)cc2)n1 | 3 | IC50 [3]: 29200 nM; inhibition [1]: 56%
CCOc1cc(Cl)ccc1-c1ccnc(Nc2ccc(S(=O)(=O)Nc3nccs3)cc2)n1 | 378 | 
COc1cc(F)c(Nc2nccc(-c3cc(F)c(F)cc3OC)n2)cc1C(N)=O | > 12500 | 
COc1ccc(F)c(F)c1-c1ccnc(Nc2ccc(S(=O)(=O)Nc3onc(C)c3C)cc2)n1 | 1 | IC50 [4]: 5910 nM; inhibition [5]: 83%; inhibition [1]: 75%; inhibition [6]: 2%
COc1cc(F)ccc1-c1ccnc(Nc2cccc(Cn3cnc4ccccc43)c2)n1 | 4 | 

Now from value to compound, other results behind:

IC50 [2] [nM] | SMILES | other results
8 | CCOc1cc(F)ccc1-c1ccnc(Nc2ccc(S(=O)(=O)Nc3onc(C)c3C)cc2)n1 | inhibition [1]: 11%
5 | COc1cc(F)ccc1-c1ccnc(Nc2ccc(S(=O)(=O)Nc3noc4ccccc34)cc2)n1 | IC50 [3]: 15500 nM
2 | COc1cccc(F)c1-c1ccnc(Nc2ccc(S(=O)(=O)Nc3nccs3)cc2)n1 | IC50 [4]: > 12500 nM; inhibition [5]: 46%; inhibition [6]: 0%
17 | CCOc1cc(Cl)ccc1-c1ccnc(Nc2ccc(S(=O)(=O)Nc3onc(C)c3C)cc2)n1 | inhibition [1]: 5%
> 12500 | COc1cc(F)c(Nc2nccc(-c3ccc(F)cc3OC(C)C)n2)cc1C(N)=O | 
1580 | COc1cc(F)c(Nc2nccc(-c3ccccc3OC)n2)cc1C(N)=O | IC50 [3]: 21500 nM
458 | Cc1noc(NS(=O)(=O)c2ccc(Nc3nccc(-c4cccc(OC(C)C)c4F)n3)cc2)c1C | inhibition [1]: 65%
5 | CCOc1cc(Cl)ccc1-c1ccnc(Nc2ccc(S(=O)(=O)Nc3nnc(C)s3)cc2)n1 | 
6 | COc1cc(F)ccc1-c1ccnc(Nc2ccc(S(=O)(=O)Nc3nnc(C)s3)cc2)n1 | 
> 12500 | COc1cc(F)c(Nc2nccc(-c3c(F)cccc3OC)n2)cc1C(N)=O | IC50 [3]: 20500 nM
40 | COc1cc(F)ccc1-c1cc(Nc2ccc(S(=O)(=O)Nc3onc(C)c3C)cc2)ncn1 | 
> 12500 | CCOc1cc(Cl)ccc1-c1ccnc(Nc2cc(C(N)=O)c(OC)cc2F)n1 | 
> 12500 | COc1cc(F)ccc1-c1ccnc(Nc2ccc(-c3c(C)noc3C)cc2)n1 | 
50 | Cc1noc(NS(=O)(=O)c2ccc(Nc3nccc(-c4ccc(Cl)cc4Cl)n3)cc2)c1C | 
3 | COc1ccccc1-c1ccnc(Nc2cccc(Cn3cnc4ccccc43)c2)n1 | IC50 [4]: > 12500 nM; inhibition [5]: 9%; IC50 [3]: 1340 nM; inhibition [6]: 0%
> 12500 | COc1cc(F)c(Nc2nccc(-c3ccc(F)cc3F)n2)cc1C(N)=O | 

IC50 [2] [nM] | SMILES | other results
8 | COc1cc(F)c(F)cc1-c1ccnc(Nc2ccc(S(=O)(=O)Nc3onc(C)c3C)cc2)n1 | inhibition [1]: 37%
12 | COc1cc(Cl)ccc1-c1ccnc(Nc2ccc(S(=O)(=O)Nc3onc(C)c3C)cc2)n1 | 
13 | CSc1cc(F)ccc1-c1ccnc(Nc2ccc(S(=O)(=O)Nc3onc(C)c3C)cc2)n1 | 
25 | COc1cccc(Cl)c1-c1ccnc(Nc2ccc(S(=O)(=O)Nc3onc(C)c3C)cc2)n1 | 
4 | COc1ccccc1-c1ccnc(Nc2ccc(S(=O)(=O)Nc3noc(C)c3C)cc2)n1 | IC50 [3]: 12300 nM
135 | COc1cc(F)ccc1-c1ccnc(Nc2ccc(C(=O)Nc3onc(C)c3C)cc2)n1 | 
> 12500 | CCOc1cc(F)ccc1-c1ccnc(Nc2cc(C(N)=O)c(OC)cc2F)n1 | 
66 | COc1cc(F)ccc1-c1ccnc(Nc2ccc(C(=O)O)cc2)n1 | 
2 | CCOc1cc(F)ccc1-c1ccnc(Nc2ccc(S(=O)(=O)Nc3nnc(C)s3)cc2)n1 | 
55 | Cc1noc(NS(=O)(=O)c2ccc(Nc3nccc(-c4ccc(F)cc4Cl)n3)cc2)c1C | 
2 | COc1cccc(F)c1-c1ccnc(Nc2ccc(S(=O)(=O)Nc3nnc(C)s3)cc2)n1 | IC50 [4]: > 12500 nM; inhibition [5]: 29%; inhibition [6]: 2%
14 | COc1ccc(-c2ccnc(Nc3ccc(S(=O)(=O)Nc4nnc(C)s4)cc3)n2)c(OC)c1 | 
9 | COc1ccc(-c2ccnc(Nc3ccc(S(=O)(=O)Nc4onc(C)c4C)cc3)n2)c(OC)c1 | inhibition [1]: 34%
210 | CCOc1cc(F)ccc1-c1ccnc(Nc2ccc(S(=O)(=O)Nc3nccs3)cc2)n1 | 
11 | Cc1noc(NS(=O)(=O)c2ccc(Nc3nccc(-c4ccc(F)cc4F)n3)cc2)c1C | inhibition [1]: 55%
